This note sets out measurements from patent EP0888346B1, “CORALYNE ANALOGS AS TOPOISOMERASE INHIBITORS” (RUTGERS, THE STATE UNIVERSITY OF NEW JERSEY, priority 1996, dated 1997).

Structures are written as SMILES. Converted amounts (≈) assume the structure as drawn. Read-outs that look alike come from different tables or passages of the source.

For data set [1], the system named is calf thymus topoisomerase II. Kind of data set: Topo II cleavage assay (plasmid YEpG DNA). It is filed as biochemical. Conditions: concentration relative to VM-26 = 1 producing the same cleavage on the plasmid DNA. An excerpt:
The plasmid pET11a and the E. coli strain BL21(DE3) used for enzyme expression were purchased from Novagen. IPTG was purchased from Sigma. The ECL system used for the Western blotting analysis of bacterial lysates was from Amersham (UK). All the restriction enzymes and Vent polymerase were from New England Biolabs. Mammalian topoisomerase II was isolated from calf thymus glands according to the published procedure (Halligan et al., J. Biol. Chem. 260:2475-2482 (1985)). The single copy yeast plasmids YCpGAL1 expressing various topoisomerase I genes in JN2-134 yeast strain were a kind gift of Dr. M-A. Bjornsti (Thomas Jefferson University, Philadelphia, PA). All bacterial and yeast media were from Difco (Detroit, MI), while cell culture media were purchased from Gibco-BRL (Gaithersburg, MD).
Cleavage assays for the recombinant topoisomerases I and calf thymus topoisomerases I and II were done as described (Liu et al., J. Biol. Chem. 258:15365-15370 (1983)). The plasmid YEpG DNA used for the cleavage assays was prepared and labeled at its 3'-end using the published procedures.

The test system of data set [2] is Human lymphoblast RPMI 8402 cells. Kind of data set: MTT-microtiter plate tetrazolinium cytotoxicity assay (MTA). It is filed as cell-based. To be noted: Homo sapiens, RPMI 8402, 96 h. An excerpt:
(§1) The results were plotted and the IC50 then measured.

Data set [3] concerns glioblastoma cell line SF-268. Kind of data set: MTA cytotoxicity assay, glioblastoma cells. The data set is classed as cell-based. Conditions: Homo sapiens, SF-268, 96 h, read-out: Cytotoxicity SF-268. How it is done:
as §1
The coralyne analog 7c was tested for its effectiveness against glioblastoma cells. The assay used was similar to that described above for the RPMI-8402 cell line. The results are shown in table 2 below which compares the effect of Compound 7c against the leukemia cell line (RPMI 8402), epidermal carncinoma (KB3-1) and glioblastoma (SF-268): Table 2

Data set [4] relates to yeast cells expressing functional yeast topoisomerase I. Briefly: Yeast cytotoxicity assay, strain expressing wild-type yeast topo I. It is filed as cell-based, S. cerevisiae. Conditions: plates with 1 µM drug (camptothecin 0.5 µM), 3 days at 30°C. The source says: It has been established that yeast can survive when topoisomerase I function is obliterated, and that the topoisomerase I poisons only kill cells having a functional topoisomerase I (Bjornsti et al. Cancer Res. 49:6318-6323 (1989)).
The topoisomerase I-specific in vivo cytotoxicity assay was adapted from Knab et al. (Knab et al., J. Biol. Chem. 268:22322-22330 (1993)). In this system, various topo I genes cloned into the single copy yeast plasmid vector, YCpGAL1 (Knab et al., J. Biol. Chem. 268:22322-22330 (1993)), are expressed under the control of the GAL1 promoter in the JN2-134 strain of S. cerevisiae (MATa, rad52::LEU2, trp1, ade2-1,his7, ura3-52, isel, top1-1, leu2) (Bjornsti et al., Cancer Res. 49:6318-6323 (1989)). The topo I constructs in the vector are, respectively, the wild-type yeast topo I (YCpGAL-ScTOP1), a non-functional yeast topo I where the active site tyrosine-727 is mutated to a phenylalanine (YCpGAL1-Sctop1Y727F) (Knab et al., J. Biol. Chem. 268:22322-22330 (1993)), and the wild type human topoisomerase I (YCpGAL-hTOP1) (Bjornsti et al., Cancer Res. 49:6318-6323 (1989)). To qualitatively test the cytotoxicity and the topo I specificity of the drugs, yeast cells containing the specific plasmid were serially diluted (5-fold) and were grown in dropout medium supplemented with uracil and 2% galactose In addition, the plates contained: A: Control, no drug in the plate; B: Camptothecin (CPT), 0.5 µM; C: Coralyne, 1 µM; D: Methylenedioxy-dihydro-demethyl-coralyne (MDD-Coralyne), 1 µM, and E: Nitidine, 1 µM. The plates were grown for 3 days at 30°C to assess the lethal effect of the different compounds on the various topoisomerase I enzymes expressed in S. cerevisiae.and the drug being tested.

Take `CC[C@@]1(O)C(=O)OCc2c1cc1n(c2=O)Cc2cc3ccccc3nc2-1` [CPT, camptothecin, reference compound]: the “Topo II-mediated DNA cleavage (REC, Relative Effective Concentration)” value in data set [1] is given as above 1000. In addition, the values for the IC50 in data set [2] (read-out: Cytotoxicity IC50 RPMI), in data set [2] (read-out: Cytotoxicity RPMI 8402) and in data set [3] were 4 nM, 3 ng/mL and 5 ng/mL (≈ 0.0144 µM), respectively. The “cytotoxicity against yeast cells expressing functional yeast topoisomerase I (in words)” value in data set [4] is “quite sensitive”.
